Results from patent publication US10800757B2, “Inhibitors of TRPC6” (Boehringer Ingelheim International GmbH, priority 2017, dated 2020).
Where a name gives a salt, the structure may show the parent alone.

Target: TRPC6 (Homo sapiens (Human), UniProt Q9Y210)
Experiment: High throughput screening assay: fluorescent calcium (Fluo4/AM) assay of TRPC6 channel activation by GSK1702934A in HEK293/TREx cells
Format: cell-based
Details: HEK293/TREx cells stably transfected with TRPC6; agonist GSK1702934A; 7 concentrations 20 μM to 0.027 μM, triplicate
Excerpt: This screening assay measures TRPC6 (transient receptor potential cation channel, subfamily C, member 6) ion channel activation via addition either of the commercially available DAG ligand analogue OAG (1-oleoyl-2-acetyl-sn-glycerol) or of the TRPC6 agonist 1-[1-(4,5,6,7,8-pentahydrocyclohepta[2,1-d]thiophen-2-ylcarbonyl)-4-piperidyl]-3-hydrobenzimidazol-2-one (GSK1702934A). The assay utilizes a FLIPR fluorescent calcium sensor 4-(6-Acetoxymethoxy-2,7-difluoro-3-oxo-9-xanthenyl)-4′-methyl-2,2′-(ethylenedioxy)dianiline-N,N,N′,N′-tetraacetic acid tetrakis(acetoxymethyl) ester (Fluo4/AM) […]. Changes (increases) in intracellular membrane calcium concentration potential as measured by the fluorescent signal increase during membrane depolarization provide a measurement of channel activity.
The commercially available HEK293/TREx line (Invitrogen) was stably transfected with a TRPC6 construct and screened by conventional calcium imaging to find clones with TRPC6 expression following stimulation with 1 μg/ml tetracycline. These cells were maintained in the growth medium recommended by the manufacturer supplemented with 100 μg/ml hygromycin to promote retention of the TRPC6 construct. After growing to near confluency, cells were plated at a density of ^˜35,000 cells/well in 384 well CellBind plates (Corning) in the presence of 1 μg/ml tetracycline, and allowed to grow for 20-30 hrs. A nearly confluent monolayer resulted. Growth media was removed from the wells and cells were then loaded with […] Fluo4/AM diluted in Ringer's Solution (6.5 g NaCl, 0.42 g KCl, 0.25 g CaCl2) and 0.2 g of sodium bicarbonate; pH 7.4) supplemented with 1% Pluronic F-127 to a final concentration of 0.5 μM and incubated for 60 min, at room temperature. Dye solution was then removed from the cells by inverting plates with a sharp flick, and replaced with 25 μl Ringer's. Following ^˜0.5 hour for recovery from loading, cells were assayed using the Hamamatsu FDSS 6000 system, which permitted illumination at 485 nm. Frames were acquired at a rate of 0.2 Hz. During the assay, the plates were continuously vortexed, with pipette mixing of wells following addition of each reagent. For the screening assay, 26 μl of a diluted compound stock (at 50 μM) was added to each well for 2 minutes following the collection of a short (4 frame) baseline. 13 μl of agonist solution consisting of 125 nM GSK1702934A diluted in high-Ca2+Ringer solution (containing 90 mm Ca2+) was then added to each well, achieving a final concentration of 20 mm Ca2+ and 10 μM test compound. Data was collected for ^˜3 minutes following addition of high Ca2+Ringer. The fluorescent ratio for each well was divided by the initial fluorescent intensity for that well and the overall response was determined by averaging the fluorescent ratio of the last 4 frames acquired during the experiment excepting the final frame. Negative and Positive controls were included on each plate. Negative controls wells consisted of HEK293/TREx TRPC6 cells exposed to assay buffer and agonist solution, but no test compound. Positive control consisted of wells consisted of HEK293/TREx TRPC6 cells exposed to 25 μM 3-[(2-chlorophenoxy)methyl]phenyl piperidyl ketone (Chembridge) diluted in Ringer's solution and agonist solution. These controls defined zero percent and 100 percent block respectively, and intensity of each well was normalized to these values.
Compounds were tested in triplicate at all concentrations. Standard software was used to fit IC50 curves.

TRPC6, sequence (Q9Y210 whole entry, species assumed): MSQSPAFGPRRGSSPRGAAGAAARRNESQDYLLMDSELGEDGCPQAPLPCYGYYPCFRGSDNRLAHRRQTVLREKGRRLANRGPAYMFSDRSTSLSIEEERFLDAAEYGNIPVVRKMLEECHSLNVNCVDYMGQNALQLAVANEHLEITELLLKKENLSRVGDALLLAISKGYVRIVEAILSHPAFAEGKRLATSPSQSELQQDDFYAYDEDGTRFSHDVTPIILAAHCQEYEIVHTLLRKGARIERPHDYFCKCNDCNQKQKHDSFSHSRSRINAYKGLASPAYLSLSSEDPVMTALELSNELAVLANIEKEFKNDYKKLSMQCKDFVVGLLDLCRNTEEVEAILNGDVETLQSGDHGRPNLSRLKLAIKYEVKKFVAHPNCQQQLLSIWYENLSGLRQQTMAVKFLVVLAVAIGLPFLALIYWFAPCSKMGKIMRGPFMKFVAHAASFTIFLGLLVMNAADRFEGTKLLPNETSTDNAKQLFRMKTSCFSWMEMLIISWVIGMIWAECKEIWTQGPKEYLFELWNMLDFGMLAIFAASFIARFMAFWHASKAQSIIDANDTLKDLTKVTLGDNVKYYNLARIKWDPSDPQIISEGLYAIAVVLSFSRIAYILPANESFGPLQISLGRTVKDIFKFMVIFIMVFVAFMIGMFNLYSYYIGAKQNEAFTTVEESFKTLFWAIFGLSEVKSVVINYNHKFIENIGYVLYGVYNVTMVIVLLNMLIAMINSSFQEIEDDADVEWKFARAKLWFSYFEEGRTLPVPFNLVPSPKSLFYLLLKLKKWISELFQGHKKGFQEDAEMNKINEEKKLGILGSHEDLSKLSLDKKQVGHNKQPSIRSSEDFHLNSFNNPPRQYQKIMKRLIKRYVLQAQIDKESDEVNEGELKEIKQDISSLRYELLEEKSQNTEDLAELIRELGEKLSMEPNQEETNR

| IC50 [nM] | SMILES |
| --- | --- |
| 820 | COc1cc(C(=O)N2CCC(c3cnc(N)cc3OC)CC2)ncc1OCC1(CF)CC1 [Compound 64, (6-Amino-4-methoxy-3′,4′,5′,6′-tetrahydro-2′H-[3,4′]bipyridinyl-1′-yl)-[5-(1-fluoromethyl-cyclopropylmethoxy)-4-methoxy-pyridin-2-yl]-methanone] |
| 1500 | COc1cc(C(=O)N2CCC(c3ccc(N)nn3)CC2)ncc1OCC1(C)CC1 [Compound 75, [4-(6-Amino-pyridazin-3-yl)-piperidin-1-yl]-[4-methoxy-5-(1-methyl-cyclopropylmethoxy)-pyridin-2-yl]-methanone] |
| 150 | COc1cc(C(=O)N2CCC(c3cnc(N)cc3OC)CC2)ncc1OCC1CC(F)(F)C1 [Compound 45, (6-Amino-4-methoxy-3′,4′,5′,6′-tetrahydro-2′H-[3,4′]bipyridinyl-1′-yl)-[5-(3,3-difluoro-cyclobutylmethoxy)-4-methoxy-pyridin-2-yl]-methanone] |
| 500 | COc1cc(C(=O)N2CCN(c3cnc(N)cc3OC)CC2)ncc1OCC1CC1 [Compound 61, [4-(6-Amino-4-methoxy-pyridin-3-yl)-piperazin-1-yl]-(5-cyclopropylmethoxy-4-methoxy-pyridin-2-yl)-methanone] |
| < 27 | COc1cc(C(=O)N2CCC(c3cnc(N)cc3C)CC2)ncc1Oc1ccc(F)cc1 [Compound 2, (6-Amino-4-methyl-3′,4′,5′,6′-tetrahydro-2′H-[3,4′]bipyridinyl-1′-yl)-[5-(4-fluoro-phenoxy)-4-methoxy-pyridin-2-yl]-methanone] |
| 190 | COc1cc(C(=O)N2CCC(c3cnc(N)cc3OC)CC2)ncc1OCCc1ccccc1 [Compound 52, (6-Amino-4-methoxy-3′,4′,5′,6′-tetrahydro-2′H-[3,4′]bipyridinyl-1′-yl)-(4-methoxy-5-phenethyloxy-pyridin-2-yl)-methanone] |
| 340 | COc1cc(C(=O)N2CCC(c3cnc(N)cc3OC)CC2)ncc1OCC(C)(C)C [Compound 59, (6-Amino-4-methoxy-3′,4′,5′,6′-tetrahydro-2′H-[3,4′]bipyridinyl-1′-yl)-[5-(2,2-dimethyl-propoxy)-4-methoxy-pyridin-2-yl]-methanone] |
| 635 | COc1cc(C(=O)N2CCC(c3cnc(N)cc3OC)CC2)ncc1OC[C@H]1C[C@H](C(F)(F)F)C1 [Compound 92, TFA salt of 4-Methoxy-5-[1-(4-methoxy-5-{[3-(trifluoromethyl)-cyclobutyl]methoxy}-pyridine-2-carbonyl)piperidin-4-yl]pyridin-2-amin] |
| 300 | COc1cc(C(=O)N2CCC(c3cnc(N)cc3OC3CC3)CC2)ncc1Oc1ccccc1 [Compound 84, (6-Amino-4-cyclopropoxy-3′,4′,5′,6′-tetrahydro-2′H-[3,4′]bipyridinyl-1′-yl)-[5-(phenoxy)-4-methoxy-pyridin-2-yl]-methanone] |

Continued, compound first:

| SMILES | IC50 [nM] |
| --- | --- |
| COc1cc(C(=O)N2CCC(c3nnc(N)cc3C)CC2)ncc1OCC1CC1 [Compound 78, [4-(6-Amino-4-methyl-pyridazin-3-yl)-piperidin-1-yl]-(5-cyclopropylmethoxy-4-methoxy-pyridin-2-yl)-methanone] | 2800 |
| COc1cc(C(=O)N2CCC(c3nnc(N)cc3C)CC2)ncc1Oc1ccccc1 [Compound 31, 6-[1-(4-Methoxy-5-phenoxypyridine-2-carbonyl)piperidin-4-yl]-5-methylpyridazin-3-amine trifluoroacetic acid] | 120 |
| CCOc1cc(N)nnc1C1CCN(C(=O)c2cc(OC)c(Oc3ccccc3)cn2)CC1 [Compound 85, [4-(6-Amino-4-ethoxy-pyridazin-3-yl)-piperidin-1-yl]-[4-methoxy-5-(phenoxy)-pyridin-2-yl]-methanone] | 320 |
| COc1cc(C(=O)N2CCC(c3ccc(N)nn3)CC2)ncc1Oc1ccc(OC(F)F)cc1 [Compound 54, [4-(6-Amino-pyridazin-3-yl)-piperidin-1-yl]-[5-(4-difluoromethoxy-phenoxy)-4-methoxy-pyridin-2-yl]-methanone] | 220 |
| COc1cc(C(=O)N2CCC(c3nnc(N)cc3OC)CC2)ncc1Oc1ccc(F)cc1 [Compound 49, [4-(6-Amino-4-methoxy-pyridazin-3-yl)-piperidin-1-yl]-[5-(4-fluoro-phenoxy)-4-methoxy-pyridin-2-yl]-methanone] | 250 |
| COc1cc(C(=O)N2CCC(c3cnc(N)cc3C)CC2)ncc1Oc1ccccc1 [Compound 10, (6-Amino-4-methyl-3′,4′,5′,6′-tetrahydro-2′H-[3,4′]bipyridinyl-1′-yl)-(4-methoxy-5-phenoxy-pyridin-2-yl)-methanone] | 27 |
| COc1cc(C(=O)N2CCN(c3ccc(N)nc3)C[C@@H]2CO)ncc1Oc1ccccc1 [Compound 81, [(R)-4-(6-Amino-pyridin-3-yl)-2-hydroxymethyl-piperazin-1-yl]-(4-methoxy-5-phenoxy-pyridin-2-yl)-methanone] | 71 |
| COc1cc(C(=O)N2CCN(c3cnc(N)cc3C)C[C@@H]2CO)ncc1Oc1ccccc1 [Compound 18, [(R)-4-(6-Amino-4-methyl-pyridin-3-yl)-2-hydroxymethyl-piperazin-1-yl]-(4-methoxy-5-phenoxy-pyridin-2-yl)-methanone] | 31 |
| COc1cc(C(=O)N2CCC(c3cc(OC)c(N)nn3)CC2)ncc1Oc1ccc(F)cc1 [Compound 11, [4-(6-Amino-5-methoxy-pyridazin-3-yl)-piperidin-1-yl]-[5-(4-fluoro-phenoxy)-4-methoxy-pyridin-2-yl]-methanone] | 27 |
| COc1cc(C(=O)N2CCC(c3ccc(N)nn3)CC2)ncc1Oc1ccc(OC(F)(F)F)cc1 [Compound 80, [4-(6-Amino-pyridazin-3-yl)-piperidin-1-yl]-[4-methoxy-5-(4-trifluoromethoxy-phenoxy)-pyridin-2-yl]-methanone] | < 27 |
| COc1cc(C(=O)N2CCN(c3cnc(N)cc3OC)CC23CC3)ncc1Oc1ccc(F)cc1 [Compound 9, [7-(6-Amino-4-methoxy-pyridin-3-yl)-4,7-diaza-spiro[2.5]oct-4-yl]-[5-(4-fluoro-phenoxy)-4-methoxy-pyridin-2-yl]-methanone] | 27 |
| COc1cc(C(=O)N2CCN(c3cnc(N)cc3OC)CC23CC3)ncc1Oc1ccccc1 [Compound 8, [7-(6-Amino-4-methoxy-pyridin-3-yl)-4,7-diaza-spiro[2.5]oct-4-yl]-(4-methoxy-5-phenoxy-pyridin-2-yl)-methanone] | 27 |
| COc1cc(C(=O)N2C3COCC2CC(c2cnc(N)cc2OC)C3)ncc1Oc1ccccc1 (stereo not drawn) [Compound 68, [7-(6-Amino-4-methoxy-pyridin-3-yl)-3-oxa-9-aza-bicyclo[3.3.1]non-9-yl]-(4-methoxy-5-phenoxy-pyridin-2-yl)-methanone] | 630 |
| COc1cc(C(=O)N2CCC(c3ccc(N)nn3)CC2)ncc1OCCc1ccccc1 [Compound 73, [4-(6-Amino-pyridazin-3-yl)-piperidin-1-yl]-(4-methoxy-5-phenethyloxy-pyridin-2-yl)-methanone] | 1300 |
| COc1ccc(Oc2cnc(C(=O)N3CCC(c4ccc(N)nn4)CC3)cc2OC)cc1 [Compound 44, [4-(6-Amino-pyridazin-3-yl)-piperidin-1-yl]-[4-methoxy-5-(4-methoxy-phenoxy)-pyridin-2-yl]-methanone] | 140 |
